Experimental data from patent US20240166646A1, “1H-PYRROLO[2,3-B]PYRIDINE DERIVATIVES AS BCL-2 INHIBITORS FOR THE TREATMENT OF NEOPLASTIC AND AUTOIMMUNE DISEASES” (Newave Pharmaceutical Inc., priority 2020, published 2024).
Where a name gives a salt, the structure may show the parent alone. One block for each compound: values may come before it.

Experiments:
[1] = molecular target: Bcl-2 (Homo sapiens (Human), UniProt P10415); experiment: Bcl-2 competition binding (fluorescence polarization) assay; conditions: fluorescein labeled BH3 peptide 15 nM, Bcl-2 protein 30 nM, 3 hours of incubation at room temperature
Chain of Bcl-2 (P10415 whole entry): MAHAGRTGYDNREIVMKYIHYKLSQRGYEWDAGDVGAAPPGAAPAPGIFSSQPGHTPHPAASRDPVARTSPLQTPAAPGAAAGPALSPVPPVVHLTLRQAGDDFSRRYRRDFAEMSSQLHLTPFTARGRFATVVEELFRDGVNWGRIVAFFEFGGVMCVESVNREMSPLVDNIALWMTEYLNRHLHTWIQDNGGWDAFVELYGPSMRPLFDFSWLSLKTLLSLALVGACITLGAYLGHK
Method: Biological Example 1: Bcl-2 Competition Binding (Fluorescence Polarization) Assay
The fluorescence-labeled 23 amino acid peptide BH3 was purchased from CalBiochem ([…]). […] This binding assay was performed in 96-well plate and with each assay contained 15 and 30 nM of labeled peptide and purified Bcl-2 protein (purchased from R&D Systems, Inc). The assay buffer contained 20 mM Hepes (pH 7.0), 50 mM KCl, 5 mM MgCl2, 20 mM Na2MoO4, 0.1 mg/mi Bovine Gamma Globulin and 0.01% NP40. Compounds were diluted in DMS0 and added to the final assay with concentration range from 20 μM to 2 nM. The polarization degree (mP) value was determined by BioTek Synergy II with background subtraction after 3 hours of incubation at room temperature. IC50 was calculated using Prism software with sigmoidal dose-response curve fitting. ABT-737 was used as reference compound. Such assays, carried out with a range of doses of test compounds, allowed the determination of an approximate IC50 value.

[2] = tested on: BCL-2-dependent acute lymphoblastic leukemia (ALL) cell line RS4; 11 with G101V mutation; experiment: In vitro anti-proliferation assay (ATPlite) in RS4; 11 with G101V mutation; type: cell-based; conditions: about 72 hours incubation, medium with 5% FBS or 10% normal human serum, ATPlite luminescence
Method: Cell antiproliferation was assayed by PerkinElmer ATPlite™ Luminescence Assay System. Briefly, the various test cancer cell lines were plated at a density of about 1×10^4 cells per well in Costar 96-well plates, and were incubated with different concentrations of compounds for about 72 hours in medium supplemented with 5% FBS or 10% normal human serum (NHS). One lyophilized substrate solution vial was then reconstituted by adding 5 mL of substrate buffer solution, and was agitated gently until the solution was homogeneous. About 50 μL of mammalian cell lysis solution was added to 100 μL of cell suspension per well of a microplate, and the plate was shaken for about five minutes in an orbital shaker at ˜700 rpm. This procedure was used to lyse the cells and to stabilize the ATP. Next, 50 μL substrate solution was added to the wells and microplate was shaken for five minutes in an orbital shaker at ˜700 rpm. Finally, the luminescence was measured by a PerkinElmer TopCount® Microplate Scintillation Counter. Such assays, carried out with a range of doses of test compounds, allowed the determination of the cellular anti-antiproliferative IC50 of the compounds of the present invention.

Compound: CC(C)c1ccccc1[C@@H]1CCCN1C1CC2(CCN(c3ccc(C(=O)NS(=O)(=O)c4ccc(NCC5CCOCC5)c([N+](=O)[O-])c4)c(N4c5cc6cc[nH]c6nc5O[C@@H]5COC[C@H]54)c3)CC2)C1 [Example 1, 2-[(11R,15S)-13,16-dioxa-2,4,10-triazatetracyclo[7.7.0.0^[3,7]0.0^[11,15]]hexadeca-1(9),2,5,7-tetraen-10-yl]-4-[2-[(2S)-2-(2-isopropylphenyl)pyrrolidin-1-yl]-7-azaspiro[3.5]nonan-7-yl]-N-[3-nitro-4-[(oxan-4-ylmethyl)amino]benzenesulfonyl]benzamide]
IC50 [1]: 0.1 nM
IC50 [2]: 5.1 nM

Compound: CC(C)c1ccccc1[C@@H]1CCCN1C1CC2(CCN(c3ccc(C(=O)NS(=O)(=O)c4ccc(NCC5CCOCC5)c([N+](=O)[O-])c4)c(N4c5cc6cc[nH]c6nc5O[C@H]5COC[C@@H]54)c3)CC2)C1 [Example 2, 2-[(11S,15R)-13,16-dioxa-2,4,10-triazatetracyclo[7.7.0.0^[3,7].0^[11,15]]hexadeca-1(9),2,5,7-tetraen-10-yl]-4-[2-[(2S)-2-(2-isopropylphenyl)pyrrolidin-1-yl]-7-azaspiro[3.5]nonan-7-yl]-N-[3-nitro-4-[(oxan-4-ylmethyl)amino]benzenesulfonyl]benzamide]
IC50 [1]: 0.22 nM
IC50 [2]: 66.7 nM

IC50 [1]: 0.16 nM
Compound: CC(C)c1ccccc1[C@@H]1CCCN1C1CC2(CCN(c3ccc(C(=O)NS(=O)(=O)c4ccc(NC[C@H]5CC[C@](C)(O)CC5)c([N+](=O)[O-])c4)c(N4c5cc6cc[nH]c6nc5O[C@@H]5COC[C@H]54)c3)CC2)C1 [Example 3-0A]
IC50 [2]: 5.6 nM

IC50 [1]: 0.13 nM
Compound: CC(C)c1ccccc1[C@@H]1CCCN1C1CC2(CCN(c3ccc(C(=O)NS(=O)(=O)c4ccc(NC[C@H]5CC[C@@](C)(O)CC5)c([N+](=O)[O-])c4)c(N4c5cc6cc[nH]c6nc5O[C@@H]5COC[C@H]54)c3)CC2)C1 [Example 3-0B]
IC50 [2]: 25 nM

Compound: Cc1ccccc1[C@@H]1CCCN1C1CC2(CCN(c3ccc(C(=O)NS(=O)(=O)c4ccc(NCC5CCOCC5)c([N+](=O)[O-])c4)c(N4c5cc6cc[nH]c6nc5O[C@@H]5COC[C@H]54)c3)CC2)C1 [Example 4, 2-[(11R,15S)-13,16-dioxa-2,4,10-triazatetracyclo[7.7.0.0^{3,7}.0^{11,15}]hexadeca-1(9),2,5,7-tetraen-10-yl]-4-{2-[(2S)-2-(2-methylphenyl)pyrrolidin-1-yl]-7-azaspiro[3.5]nonan-7-yl}-N-{3-nitro-4-[(oxan-4-ylmethyl)amino]benzenesulfonyl}benzamide]
IC50 [1]: 0.183 nM
IC50 [2]: 28.3 nM

Compound: C=C(C)c1ccccc1[C@@H]1CCCN1C1CC2(CCN(c3ccc(C(=O)NS(=O)(=O)c4ccc(NCC5CCOCC5)c([N+](=O)[O-])c4)c(N4c5cc6cc[nH]c6nc5O[C@@H]5COC[C@H]54)c3)CC2)C1 [Example 5, 2-[(11R,15S)-13,16-dioxa-2,4,10-triazatetracyclo[7.7.0.0^{3,7}.0^{11,15}]hexadeca-1(9),2,5,7-tetraen-10-yl]-N-{3-nitro-4-[(oxan-4-ylmethyl)amino]benzenesulfonyl}-4-{2-[(2S)-2-[2-(prop-1-en-2-yl)phenyl]pyrrolidin-1-yl]-7-azaspiro[3.5]nonan-7-yl}benzamide hydrochloride]
IC50 [1]: 0.067 nM
IC50 [2]: 9.5 nM

Compound: C=Cc1ccccc1[C@@H]1CCCN1C1CC2(CCN(c3ccc(C(=O)NS(=O)(=O)c4ccc(NCC5CCOCC5)c([N+](=O)[O-])c4)c(N4c5cc6cc[nH]c6nc5O[C@@H]5COC[C@H]54)c3)CC2)C1 [Example 6, 2-[(11R,15S)-13,16-dioxa-2,4,10-triazatetracyclo[7.7.0.0^{3,7}.0^{11,15}]hexadeca-1(9),2,5,7-tetraen-10-yl]-4-{2-[(2S)-2-(2-ethenylphenyl)pyrrolidin-1-yl]-7-azaspiro[3.5]nonan-7-yl}-N-{3-nitro-4-[(oxan-4-ylmethyl)amino]benzenesulfonyl}benzamide hydrochloride]
IC50 [1]: 0.083 nM
IC50 [2]: 29 nM

Compound: CCc1ccccc1[C@@H]1CCCN1C1CC2(CCN(c3ccc(C(=O)NS(=O)(=O)c4ccc(NCC5CCOCC5)c([N+](=O)[O-])c4)c(N4c5cc6cc[nH]c6nc5O[C@@H]5COC[C@H]54)c3)CC2)C1 [Example 7, 2-[(11R,15S)-13,16-dioxa-2,4,10-triazatetracyclo[7.7.0.0^{3,7}.0^{11,15}]hexadeca-1(9),2,5,7-tetraen-10-yl]-4-{2-[(2S)-2-(2-ethylphenyl)pyrrolidin-1-yl]-7-azaspiro[3.5]nonan-7-yl}-N-{3-nitro-4-[(oxan-4-ylmethyl)amino]benzenesulfonyl}benzamide hydrochloride]
IC50 [1]: 0.066 nM
IC50 [2]: 11.5 nM

Compound: O=C(NS(=O)(=O)c1ccc(NCC2CCOCC2)c([N+](=O)[O-])c1)c1ccc(N2CCC3(CC2)CC(N2CCC[C@H]2c2ccccc2C2CC2)C3)cc1N1c2cc3cc[nH]c3nc2O[C@@H]2COC[C@H]21 [Example 8, 4-{2-[(2S)-2-(2-cyclopropylphenyl)pyrrolidin-1-yl]-7-azaspiro[3.5]nonan-7-yl}-2-[(11R,15S)-13,16-dioxa-2,4,10-triazatetracyclo[7.7.0.0^{3,7}.0^{11,15}]hexadeca-1(9),2,5,7-tetraen-10-yl]-N-{3-nitro-4-[(oxan-4-ylmethyl)amino]benzenesulfonyl}benzamide hydrochloride]
IC50 [1]: 0.066 nM
IC50 [2]: 9.1 nM

Compound: CNc1ccccc1[C@@H]1CCCN1C1CC2(CCN(c3ccc(C(=O)NS(=O)(=O)c4ccc(NCC5CCOCC5)c([N+](=O)[O-])c4)c(N4c5cc6cc[nH]c6nc5O[C@@H]5COC[C@H]54)c3)CC2)C1 [Example 17, 2-[(11R,15S)-13,16-dioxa-2,4,10-triazatetracyclo[7.7.0.0^{3,7}.0^{11,15}]hexadeca-1(9),2,5,7-tetraen-10-yl]-4-{2-[(2S)-2-[2-(methylamino)phenyl]pyrrolidin-1-yl]-7-azaspiro[3.5]nonan-7-yl}-N-{3-nitro-4-[(oxan-4-ylmethyl)amino]benzenesulfonyl}benzamide]
IC50 [1]: 0.225 nM
IC50 [2]: 99.5 nM

Compound: CC(C)(C#N)c1ccccc1[C@@H]1CCCN1C1CC2(CCN(c3ccc(C(=O)NS(=O)(=O)c4ccc(NCC5CCOCC5)c([N+](=O)[O-])c4)c(N4c5cc6cc[nH]c6nc5O[C@@H]5COC[C@H]54)c3)CC2)C1 [Example 19, 4-{2-[(2S)-2-[2-(1-cyano-1-methylethyl)phenyl]pyrrolidin-1-yl]-7-azaspiro[3.5]nonan-7-yl}-2-[(11R,15S)-13,16-dioxa-2,4,10-triazatetracyclo[7.7.0.0^{3,7}.0^{11,15}]hexadeca-1(9),2,5,7-tetraen-10-yl]-N-{3-nitro-4-[(oxan-4-ylmethyl)amino]benzenesulfonyl}benzamide hydrochloride]
IC50 [1]: 0.1 nM
IC50 [2]: 71.8 nM

Compound: CC(C)Oc1ccccc1[C@@H]1CCCN1C1CC2(CCN(c3ccc(C(=O)NS(=O)(=O)c4ccc(NCC5CCOCC5)c([N+](=O)[O-])c4)c(N4c5cc6cc[nH]c6nc5O[C@@H]5COC[C@H]54)c3)CC2)C1 [Example 20, 2-[(11R,15S)-13,16-dioxa-2,4,10-triazatetracyclo[7.7.0.0^{3,7}.0^{11,15}]hexadeca-1(9),2,5,7-tetraen-10-yl]-4-{2-[(2S)-2-(2-isopropoxyphenyl)pyrrolidin-1-yl]-7-azaspiro[3.5]nonan-7-yl}-N-{3-nitro-4-[(oxan-4-ylmethyl)amino]benzenesulfonyl}benzamide]
IC50 [1]: 0.299 nM
IC50 [2]: 60.4 nM

IC50 [1]: 0.58 nM
Compound: CC(C)Cc1ccccc1[C@@H]1CCCN1C1CC2(CCN(c3ccc(C(=O)NS(=O)(=O)c4ccc(NCC5CCOCC5)c([N+](=O)[O-])c4)c(N4c5cc6cc[nH]c6nc5O[C@@H]5COC[C@H]54)c3)CC2)C1 [Example 35, 4-(2-((S)-2-(2-isobutylphenyl)pyrrolidin-1-yl)-7-azaspiro[3.5]nonan-7-yl)-N-((3-nitro-4-(((tetrahydro-2H-pyran-4-yl)methyl)amino)phenyl)sulfonyl)-2-((5aR,8aS)-5a,6,8,8a-tetrahydrofuro[3,4-b]pyrrolo[3′,2′:5,6]pyrido[3,2-e][1,4]oxazin-5(1H)-yl)benzamide]

Compound: COC1(C)CCC(CNc2ccc(S(=O)(=O)NC(=O)c3ccc(N4CCC5(CC4)CC(N4CCC[C@H]4c4ccccc4C(C)C)C5)cc3N3c4cc5cc[nH]c5nc4O[C@@H]4COC[C@H]43)cc2[N+](=O)[O-])CC1 (stereo partly drawn) [Example 36, 4-(2-((S)-2-(2-isopropylphenyl)pyrrolidin-1-yl)-7-azaspiro[3.5]nonan-7-yl)-N-((4-((((1r,4r)-4-methoxy-4-methylcyclohexyl)methyl)amino)-3-nitrophenyl)sulfonyl)-2-((5aR,8aS)-5a,6,8,8a-tetrahydrofuro[3,4-b]pyrrolo[3′,2′:5,6]pyrido[3,2-e][1,4]oxazin-5(1H)-yl)benzamide hydrochloride]
IC50 [1]: 0.31 nM
IC50 [2]: 56.4 nM
